Data taken from US9329170B2, “Single cell gene expression for diagnosis, prognosis and identification of drug targets” (The Board of Trustees of the Leland Stanford Junior …, priority 2009, dated 2016).

Test system: murine breast cancer stem cells
Assay: clonogenic ability of murine breast cancer stem cells
Assay type: cell-based
Details: short, 24 hour exposure to the inhibitor; p<0.02, t test
Description: Many of these genes have been linked to self renewal and cancer. These include the insulin growth factor binding partner IGFBP3, the HOX family members HOXA3, HOXA5, ME1S1 as well as transcription factors like ETS1, ETS2, RUNX2 and STAT3. It was tested whether the transcription factor STAT3 is a bona fide cancer stem cell regulator. STAT3 plays a role in the maintenance of both ES cells and HSCs. […] Next, when we examined immunochemistry analysis of breast tumors the STAT3 positive cells tended to be concentrated on the invasive edge of the cancer and the protein was not seen in the more differentiated-looking cells in the interior parts of tumors. Finally, there are small molecule inhibitors of STAT3. Such inhibitors can be tested in cancer stem cell models. The effect of the STAT3 inhibitor cucurbitacin on the clonogenic ability of murine breast cancer stem cells was tested.

cucurbitacin
reduction of the number of colonies: ~50%
